According to the NIST ThermoML archive (doi:10.1021/je100069q):
Numbers after ± are expanded uncertainties.

Conditions: 101.33 kPa, Liquid

SMILES | mass density (313.15 K) | mass density (293.15 K) | further results
CCc1ccccc1 [ethylbenzene] |  |  | mass density (298.15 K): 862.59 ± 0.3 kg/m3
Oc1ccccc1 [phenol] | 1058.3 ± 0.35 kg/m3 |  | 
Cc1ccc(O)cc1 [4-methylphenol] | 1018.8 ± 0.27 kg/m3 |  | 
Cc1ccccc1 [toluene] |  | 866.78 ± 0.31 kg/m3 | 
Cc1ccccc1O [2-methylphenol] |  |  | mass density (308.15 K): 1032.73 ± 0.61 kg/m3
Cc1cccc(O)c1 [3-methylphenol] |  | 1033.85 ± 0.28 kg/m3 | 
